How the values were obtained:
[1] = target: T1, humanen IL-4 Rezeptor (huIL-4R/Fc) (Homo sapiens, UniProt P24394); assay: Cell-free huIL-4 binding assay (IL-4 receptor test, ELISA with receptor/Fc fusion protein and biotinylated ligand); settings: huIL-4R/Fc 500 ng/ml; biotinylated huIL-4 100 ng/ml; 1 h room temperature; PBSA with 5 % DMSO; Abbildung 3
T1 construct: die aus der extrazellulären Region von normalerweise membranständigen Rezeptoren bestehen
T1 sequence (P24394 26-232 limits assumed): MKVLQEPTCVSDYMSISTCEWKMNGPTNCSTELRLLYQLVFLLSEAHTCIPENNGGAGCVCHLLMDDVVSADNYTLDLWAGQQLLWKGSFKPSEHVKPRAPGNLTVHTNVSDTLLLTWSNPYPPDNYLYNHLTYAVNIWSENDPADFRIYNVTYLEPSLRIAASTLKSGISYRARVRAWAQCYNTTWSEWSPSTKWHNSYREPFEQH
Excerpt: Aus der EP 488 170 A1 sind zellfreie Bindungsteste bekannt. Für ihre Durchführung werden rekombinante chimäre Proteine verwendet, die aus der extrazellulären Region von normalerweise membranständigen Rezeptoren bestehen, an deren Carboxyterminus die Fc-Region einer schweren Immunglobulinkette bestehend aus Hinge-, CH2- und CH3-Domäne fusioniert wurde. Diese sogenannten Rezeptor/Fc-Fusionsproteine können unter Erhalt der spezifischen Rezeptorbindungsaktivität an Festphasen gebunden werden, die beispielsweise mit monoklonalen Antikörpern gerichtet gegen den Fc-Teil vorbeschichtet wurden. Als Festphase wurden für dieses Beispiel ®Nunc Typ B ELISA-Platten verwendet. Rezeptor/Fc-Fusionsproteine gelöst in PBS enthaltend 10 mg/ml BSA (PBSA) wurden an diese vorbehandelten Platten gebunden (huIL-4R/Fc: 500 ng/ml; muIL-4R/Fc: 250 ng/ml; huIL-1R/Fc: 125 ng/ml; 1 h bei Raumtemperatur). Nach Waschen wurden die Peptide beziehungsweise die jeweiligen spezifischen unmarkierten Liganden (huIL-4R/Fc: huIL-4; muIL-4R/Fc: muIL-4; huIL-1R/Fc:huIL-1ra) in variierenden Konzentrationen und danach die spezifischen Liganden in biotinylierender Form in einer festen Konzentration zugegeben (100 ng/ml). Die Inkubation erfolgte 1 h bei Raumtemperatur in PBSA enthaltend 5 % DMSO. Nach Waschen erfolgte eine Inkubation mit Streptavidin/Peroxidase (Amersham, 1:2000 in PBSA) für 20 min bei Raumtemperatur. […]

[2] = Solubility (physicochemical properties, Table 1); settings: in Methanol, Acetonitril, Chloroform und Benzol
Excerpt: (§1) Die physikalisch-chemisch sowie spektroskopischen Eigenschaften von Cillianon lassen sich wie folgt zusammenfassen: Tabelle 1

[3] = Stability (physicochemical properties, Table 1)
Excerpt: as §1

SMILES: Cc1cc(O)c2c3c(c(O)c4c(c13)OC(C)C4(C)C)C(=O)C(O)(O)C2=O (centres unmarked) [Cillianon]
- IC50 [1]: 55.8 µM
- Löslichkeit [2]: lösliche
- Stabilität ([3]; im sauren Milieu): stabil
- Stabilität ([3]; in wässrigem Alkali): unbeständig
- Stabilität ([3]; unter Lichteinwirkung): unbeständig

Reference: EP0742215A1, “Cillianon, antibiotic from penicillin spe., and chemical derivatives thereof, method for their preparation and application” (HOECHST AKTIENGESELLSCHAFT, priority 1995, dated 1996)
